Measured values: patent US20070259329A1, “Anergy-inducing cellular composition” (BioVerde. Inc., priority 2006, published 2007)
Marks after values point to notes of the source that are not given here.

Tests used:
INF-γ production = test: Cytokine ELISA of one-way MLR supernatants, INF-γ; format: cell-based, murine; conditions: versus untreated, FIG. 8
Procedure: In a one-way MLR (FIG. 3), a stimulator splenocyte population (BALB/c) was treated with 30 ppm mitomycin C (MP Biomedicals) in RPMI 1640 (10% FCS) at 37 degree C. for 30 min. to arrest its proliferation before EGCG treatments. The splenocytes were then resuspended with the media solution (RPMI 1640 and 10 mM HEPES) containing 0, 100, and 200 ppm EGCG and incubated at 4-8 degree C. for 1 hour and twice washed with RPMI 1640 (10% FCS) before used for MLR experiments. In a two-way MLR (FIG. 4), both stimulator and responder populations were left capable of proliferating. Each cell population was resuspended in RPMI 1640 (10% FCS) and antibiotics: (penicillin 100 U/ml and streptomycin 100 ppm, BioWhittaker) to a final concentration of 5.0×10^6 cells/ml. The stimulator and responder cells were mixed with a 1:1 ratio (120 μl each) and incubated in triplicate in 96-well plates for 72 hours at […] and 5% CO2. Cell proliferation was estimated by counting with trypan-blue exclusion a small sample of the cells from each MLR well.
Supernatants from the one-way MLR wells (Example II) were assayed for IL-2 and INF-γ production using cytokine quantification ELISA (e-Bioscience).

CD49d = target: T1, CD49d (Mus musculus, UniProt Q00651); test: Lymphocyte marker analysis by flow cytometry, CD49d epitope; format: cell-based, murine (C57BI/6 splenocytes); conditions: for percent expression of cell surface molecule CD49d: epitope-specific antibody, average of triplicate; for average percent suppression in epitope detection, CD49d: relative to untreated control (0 ppm)
T1 construct: endogenous in cells; host or cells: murine splenocytes (C57Bl/6)
T1 sequence (Q00651 41-1039): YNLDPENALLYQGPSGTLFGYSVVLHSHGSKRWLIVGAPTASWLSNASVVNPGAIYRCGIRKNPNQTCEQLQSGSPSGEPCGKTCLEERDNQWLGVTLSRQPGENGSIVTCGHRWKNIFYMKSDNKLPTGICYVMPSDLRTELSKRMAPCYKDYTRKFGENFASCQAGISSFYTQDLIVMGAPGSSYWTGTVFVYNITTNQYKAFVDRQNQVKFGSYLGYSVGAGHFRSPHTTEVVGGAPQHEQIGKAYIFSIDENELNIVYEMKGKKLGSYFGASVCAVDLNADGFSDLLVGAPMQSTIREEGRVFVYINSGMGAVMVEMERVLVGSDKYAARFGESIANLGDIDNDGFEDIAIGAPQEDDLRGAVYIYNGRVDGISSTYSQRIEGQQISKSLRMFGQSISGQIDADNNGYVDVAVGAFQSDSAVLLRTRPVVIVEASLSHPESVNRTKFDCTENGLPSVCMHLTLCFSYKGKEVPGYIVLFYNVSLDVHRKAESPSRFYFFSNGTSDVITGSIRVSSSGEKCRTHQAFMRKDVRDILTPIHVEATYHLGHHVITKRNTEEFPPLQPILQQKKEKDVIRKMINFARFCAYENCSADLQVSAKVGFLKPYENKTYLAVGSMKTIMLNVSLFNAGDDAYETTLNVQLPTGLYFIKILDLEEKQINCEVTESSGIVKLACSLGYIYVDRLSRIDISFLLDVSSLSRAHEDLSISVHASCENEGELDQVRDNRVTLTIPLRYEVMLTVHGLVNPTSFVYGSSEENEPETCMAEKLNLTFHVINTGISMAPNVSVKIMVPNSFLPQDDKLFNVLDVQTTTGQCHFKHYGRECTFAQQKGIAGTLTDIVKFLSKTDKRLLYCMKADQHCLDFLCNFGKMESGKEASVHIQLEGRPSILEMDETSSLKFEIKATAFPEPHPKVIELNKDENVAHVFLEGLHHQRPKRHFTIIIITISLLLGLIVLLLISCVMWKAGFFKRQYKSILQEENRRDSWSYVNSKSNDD
Procedure: (§1) To evaluate the action of EGCG in rendering cells to become anergy-inducing, murine splenocytes were used as a model system. Splenocytes were collected from BALB/c (H2 K^b) and C57BI/6 (H2 K^d) female mice of 8 to 13 weeks of age in HBSS (BioWhittaker) with 1% FCS. Cells were washed with HBSS (1% FCS) and treated with the media solution which contains RPMI 1640 (Sigma-Aldrich), 10 mM HEPES (Dojindo), and various concentrations of EGCG (98% purity, Roche) described in the examples.
(§2) Flow cytometric analyses of surface epitopes for the control and EGCG-treated splenocytes were performed using a series of fluorescence-labeled monoclonal anti-mouse CD and MHC and corresponding isotype control antibodies (eBioscience: CD2, CD36, CD4, CD11a, CD25, CD 28, CD 49d and CD80; Pharmingen: TCRαβ and MHC II). Murine splenocytes (C57BI/6) were treated with red blood cell lysis buffer (eBioscience) for 5 min prior to EGCG treatments. Immediately following EGCG-treatments, the splenocytes were washed with RPMI 1640 (10% FCS) and a staining buffer (eBioscience) at 4 degree C. Each splenocyte sample was reconstituted as a 50 μl aliquot in the same staining buffer and subject to antibody labeling. After washing twice the samples with the staining buffer, a minimum of 10,000 events per sample was collected on a Becton Dickinson FACScan flow cytometer.

pancreatic β-cell = conditions: Han (2003); cited from earlier work
CD25 = target: T2, CD25 (Mus musculus, UniProt P01590); test: Lymphocyte marker analysis by flow cytometry, CD25 epitope; format: cell-based, murine (C57BI/6 splenocytes); conditions: for percent expression of cell surface molecule CD25: epitope-specific antibody, average of triplicate; for average percent suppression in epitope detection, CD25: relative to untreated control (0 ppm)
T2 construct: endogenous in cells; host or cells: murine splenocytes (C57Bl/6)
T2 sequence (P01590 22-268): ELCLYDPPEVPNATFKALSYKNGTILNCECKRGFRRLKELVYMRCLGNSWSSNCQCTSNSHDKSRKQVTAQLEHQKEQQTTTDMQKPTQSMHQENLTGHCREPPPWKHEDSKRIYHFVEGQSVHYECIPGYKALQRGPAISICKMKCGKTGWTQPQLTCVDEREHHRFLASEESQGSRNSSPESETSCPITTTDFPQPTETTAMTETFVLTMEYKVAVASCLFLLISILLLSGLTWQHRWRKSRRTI
Procedure: as §1, §2

Substance: (−)-epigallocatechin-3-o-gallate [EGCG]
- production of INF-γ (INF-γ production): significantly decreased down to near or below the background levels
- percent expression of cell surface molecule CD49d (CD49d; EGCg 100 ppm): 19.7%
- average percent suppression in epitope detection, CD49d (CD49d; EGCg 100 ppm): (54.1)** percent
- percent expression of cell surface molecule CD49d (CD49d; EGCg 200 ppm): 20.5%
- average percent suppression in epitope detection, CD49d (CD49d; EGCg 200 ppm): (52.2)** percent
- blocking of CD49d by EGCG (CD49d; summary of TABLE 1): blocked
- cytokine-induced pancreatic β-cell damage (pancreatic β-cell): suppression
- percent expression of cell surface molecule CD25 (CD25; EGCg 100 ppm): 11.6%
- average percent suppression in epitope detection, CD25 (CD25; EGCg 100 ppm): (16.5)^n.s. percent
- percent expression of cell surface molecule CD25 (CD25; EGCg 200 ppm): 10.8%
- average percent suppression in epitope detection, CD25 (CD25; EGCg 200 ppm): (22.3)* percent
- blocking of CD25 by EGCG (CD25; summary of TABLE 1): blocked
